For 6 molecules, activation results are on record in patent US20250066389A1, “HETEROCYCLIC AMIDES AND METHODS OF USING THE SAME” (Rgenta Therapeutics, Inc., priority 2021, published 2025).

The assay concerns PMS1. Briefly: Mini-Gene Reporter Assay—PMS1 (firefly luciferase mini-gene reporter transiently transfected into HEK293 cells). The settings on record: Homo sapiens; at 5 uM; mini-gene firefly luciferase reporter in HEK293 cells; read-out: PMS1 % Effect at 5 uM. In kind it is cell-based. In a few lines: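 Luminescence (RLU) read-out of exon inclusion: compound dilutions, tested in duplicate, act on transiently transfected HEK293 cells carrying a firefly luciferase reporter fused downstream of the PMS1 skipped-exon region. Potency derived by Levenberg-Marquardt curve fitting, with percent effect at 5 μM.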
On the technique in general: In a reporter assay the amount or activity of a reporter protein is the signal.

Structures can show the parent of a compound that is named as a salt.

For `CCOc1cn2nc(C)cc2cc1C(=O)Nc1ccc(N2CCNC(C)(C)C2)nn1` [Compound 755, N-(6-(3,3-dimethylpiperazin-1-yl)pyridazin-3-yl)-6-ethoxy-2-methylpyrazolo[1,5-a]pyridine-5-carboxamide hydrochloride], the activation at 5 µM was above 75%.
With `CCOc1cc2nn(C)cc2cc1C(=O)Nc1ccc(C2=CC(C)(C)NCC2)nn1` [Compound 756, N-(6-(6,6-dimethyl-1,2,3,6-tetrahydropyridin-4-yl)pyridazin-3-yl)-6-ethoxy-2-methyl-2H-indazole-5-carboxamide formate], the activation at 5 µM was above 75%.
Then `CCOc1cn2nc(C)cc2cc1C(=O)Nc1ccc(C2CCNCC2)nn1` [Compound 757, 6-ethoxy-2-methyl-N-(6-(piperidin-4-yl)pyridazin-3-yl)pyrazolo[1,5-a]pyridine-5-carboxamide hydrochloride], with above 75%; and `CCOc1cc2nc(C)cn2cc1C(=O)Nc1ccc(N2CC(C)NC(CC)C2)nn1` (stereo not drawn) [Compound 758, 7-ethoxy-N-(6-(3-ethyl-5-methylpiperazin-1-yl)pyridazin-3-yl)-2-methylimidazo[1,2-a]pyridine-6-carboxamide], with above 75%; and `CCOc1cc2nc(C)cn2cc1C(=O)Nc1ccc(C2=CCN(C)CC2)nn1` [Compound 759, 7-ethoxy-2-methyl-N-(6-(1-methyl-1,2,3,6-tetrahydropyridin-4-yl)pyridazin-3-yl)imidazo[1,2-a]pyridine-6-carboxamide], with above 75%.
Consider `CCOc1cn2nc(C)cc2cc1C(=O)Nc1ccc(N2C[C@@H](C)N[C@@H](C)C2)nn1` [Compound 761, N-(6-((3R,5S)-3,5-dimethylpiperazin-1-yl)pyridazin-3-yl)-6-ethoxy-2-methylpyrazolo[1,5-a]pyridine-5-carboxamide hydrochloride], for which the activation at 5 µM was above 75%.
